The numbers were not newly measured in patent publication US10272040B2, “Liposomal formulation for ocular drug delivery” (Nanyang Technological University, priority 2010, dated 2019), which cites them from elsewhere.

Molecules are shown by their SMILES.

Usually log P stands for the decadic logarithm of the partition coefficient of the neutral form, usually between octanol and water.

The conditions of data set [1]: other drugs in liposomes.
The conditions of data set [2]: SRC PhysProp Database.

As for `N.N.[Cl][Pt][Cl]` [cisplatin], in data set [1], the “Drug:Lipid mole ratio, Literature” value is 0.05.
With `CC(C)OC(=O)CCC/C=C\C[C@@H]1[C@@H](CC[C@@H](O)CCc2ccccc2)[C@H](O)C[C@@H]1O` [latanoprost], in data set [2], the log partition coefficient (log P) is 4.4.
